Measured values reported in paper PMC9666779 (Frontiers in Pharmacology, 2022).
Bridge positions count the residues as written; N and C are the ends. Square brackets hold non-standard residues; d marks the D form. Peptide text beside a SMILES is read from it.

Assays:
[1] = biological target: Mpro (Severe acute respiratory syndrome coronavirus 2, UniProt P0DTD1); assay: biochemical; format: binding, SARS-CoV-2
[2] = biological target: NRP1 (Homo sapiens, UniProt O14786); assay: biochemical; format: binding
[3] = biological target: SARS-CoV-2 Mpro (Severe acute respiratory syndrome coronavirus 2, UniProt P0DTD1); assay: biochemical
Description: According to a previously reported method ([Du et al., 2021]), the FRET-based enzymatic assay was used to evaluate the inhibitory effects of the peptides on Mpro. First, the Mpro (250 nM at a final concentration) was incubated with various concentrations of tested peptides in 90 μL reaction buffer for 30 min in a black 96-well plate, and then the reaction was initiated by adding 10 μL of […] FRET-based peptide substrate (Dabcyl-KTSAVLQ/SGFRKME-Edans). The reaction was monitored for 1 h, and the initial velocity was calculated using the data by linear regression. The IC50 was calculated by plotting the initial velocity against various concentrations of testing inhibitor by using a four parameters dose−response curve in Prism software.

[4] = test system: FHs 74 Int cells; assay: MTT cytotoxicity assay, FHs 74 Int cells; format: cell-based, human; conditions: 50 μM, 48 h
Description: According to a previously reported method ([Zheng et al., 2021b]), 293T, A549 and FHs 74 Int cells were plated in 96-well plates at a density of 5 × 10^4 cells per well. After incubation for 24 h, the peptide solution was added into the plates and the cells were incubated for 48 h. After that, the incubation medium was removed, the cells were washed with PBS at pH 7.4, and then MTT stock solution (0.5 mg/ml) was added into each well and incubated for another 4 h. The medium was removed by centrifugation, and the precipitated cells were lysed using DMSO. After the purple crystals were completely dissolved, the cell viability was calculated according to the absorbance signals measured by a microplate reader at the wavelength of 570 nm.
Figure S2. The cytotoxicity effects of MNs 1-4 on FHs 74 Int cells detected using MTT assay. Cells were treated with the concentration of 50 μM of peptides for 48 h. The results are represented as mean ± SD (n = 3).

Chain of NRP1 (O14786 273-427): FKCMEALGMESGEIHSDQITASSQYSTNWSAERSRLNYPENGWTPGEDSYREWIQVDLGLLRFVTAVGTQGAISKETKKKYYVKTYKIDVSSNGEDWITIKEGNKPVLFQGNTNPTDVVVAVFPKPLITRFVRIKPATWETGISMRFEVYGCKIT

## CC(C)C[C@@H]1NC(=O)[C@H](CCC(N)=O)NC(=O)[C@H](CCCNC(=N)N)NC(=O)[C@H](C)NC(=O)[C@H](CCCCN)NC(=O)[C@@H]2CSSC[C@@H](C(=O)N[C@@H](CC(=O)O)C(=O)N[C@@H](CCCCN)C(=O)N3CCC[C@H]3C(=O)N[C@@H](CCCNC(=N)N)C(=O)N[C@@H](CCCNC(=N)N)C(=O)O)NC(=O)[C@H](CCCNC(=N)N)NC(=O)[C@H](CSSC[C@H](NC(=O)[C@@H](N)CO)C(=O)N[C@@H](CCCCN)C(=O)N[C@@H](CC(N)=O)C(=O)N[C@@H]([C@@H](C)O)C(=O)N[C@@H](CC(=O)O)C(=O)N[C@@H](CO)C(=O)N[C@@H](CCCNC(=N)N)C(=O)N2)NC(=O)[C@H]([C@@H](C)O)NC(=O)[C@H](CCCNC(=N)N)NC(=O)[C@H](CCC(=O)O)NC(=O)[C@H](CC(N)=O)NC(=O)[C@H](CC(C)C)NC(=O)[C@H](CCC(=O)O)NC1=O [EG3287, reference compound] (H-SCKNTDSRCKARQLELNERTCRCDKPRR-OH; disulfide 2-21, 9-23; N-terminus assumed)
[1]; MST, mean ± SD (n = 3)
  Mpro, Kd: no binding affinity
[2]
  Kd: 912 ± 10.6 nM

## CC(C)C[C@@H]1NC(=O)[C@H](C(C)C)NC(=O)[C@H](C)NC(=O)[C@H](Cc2ccccc2)NC(=O)[C@H](CCC(N)=O)NC(=O)[C@H](CC(C)C)NC(=O)[C@@H](Cc2ccccc2)NC(=O)[C@H](N)CSSC[C@H](C(=O)NCC(=O)NCC(=O)NCC(=O)N[C@@H](CCCNC(=N)N)C(=O)N2CCC[C@H]2C(=O)N[C@@H](CCCNC(=N)N)C(=O)N[C@@H](CCCNC(=N)N)C(=O)NCC(=O)N[C@@H](CCCNC(=N)N)C(=O)O)NC(=O)[C@H](CCC(N)=O)NC(=O)[C@H](CCCCN)NC(=O)[C@H](CCCNC(=N)N)NC(=O)[C@H](CCCNC(=N)N)NC(=O)[C@H](Cc2c[nH]cn2)NC(=O)[C@H](CCCNC(=N)N)NC1=O [MN-1] (H-[dC][dF]LQFAVLRHRRKQ[dC]GGGRPRRGR-OH; disulfide 1-15)
[3]
  IC50: 56.3 ± 3.9 nM
[1]
  Kd: 53.4 ± 2.5 nM
[2]
  Kd: 95.6 ± 4.1 nM

## CC(C)C[C@@H]1NC(=O)[C@H](C(C)C)NC(=O)[C@H](C)NC(=O)[C@H](Cc2ccc(O)cc2)NC(=O)[C@H](CCC(N)=O)NC(=O)[C@H](CC(C)C)NC(=O)[C@@H](Cc2ccccc2)NC(=O)[C@H](N)CSSC[C@H](C(=O)NCC(=O)NCC(=O)NCC(=O)N[C@@H](CCCNC(=N)N)C(=O)N2CCC[C@H]2C(=O)N2CCC[C@H]2C(=O)N[C@@H](CCCNC(=N)N)C(=O)N[C@@H](CCCNC(=N)N)C(=O)N[C@@H](C)C(=O)N[C@@H](CCCNC(=N)N)C(=O)O)NC(=O)[C@H](CCC(=O)O)NC(=O)[C@H](CCCNC(=N)N)NC(=O)[C@H](CCCNC(=N)N)NC(=O)[C@H](CCCCN)NC(=O)[C@H](CCC(N)=O)NC(=O)[C@H](CCCCN)NC1=O [MN-2] (H-[dC][dF]LQYAVLKQKRRE[dC]GGGRPPRRAR-OH; disulfide 1-15)
[4]
  viability of FHs 74 Int cells (cytotoxicity): undetectable cytotoxicity
[3]
  IC50: 20.6 ± 2.2 nM
[1]
  Kd: 18.2 ± 1.9 nM
[2]
  Kd: 12.3 ± 1.2 nM

## CC[C@@H](C)[C@H]1NC(=O)[C@H](N)CSSC[C@H](C(=O)NCC(=O)NCC(=O)NCC(=O)N[C@@H](CCCNC(=N)N)C(=O)NCC(=O)N[C@@H](CCC(=O)O)C(=O)N[C@@H](CCCNC(=N)N)C(=O)N2CCC[C@H]2C(=O)N2CCC[C@H]2C(=O)N[C@@H](CCCNC(=N)N)C(=O)O)NC(=O)[C@H](CCCCN)NC(=O)[C@H](CCCNC(=N)N)NC(=O)[C@H](CCC(N)=O)NC(=O)[C@H](CCCNC(=N)N)NC(=O)[C@H](CCCCN)NC(=O)[C@H](CCCCN)NC(=O)[C@H](Cc2ccccc2)NC(=O)[C@H](C(C)C)NC(=O)[C@H](C)NC(=O)[C@H](CC(C)C)NC(=O)[C@H](CCC(N)=O)NC(=O)[C@H](CC(C)C)NC1=O [MN-3] (H-[dC][dI]LQLAVFKKRQRK[dC]GGGRGERPPR-OH; disulfide 1-15)
[3]
  IC50: 209 ± 7.6 nM
[1]
  Kd: 206 ± 8.8 nM
[2]
  Kd: 110 ± 6.7 nM

## CC(C)C[C@@H]1NC(=O)[C@H](C(C)C)NC(=O)[C@H](C)NC(=O)[C@H](Cc2ccccc2)NC(=O)[C@H](CCC(N)=O)NC(=O)[C@H](CC(C)C)NC(=O)[C@@H](Cc2c[nH]c3ccccc23)NC(=O)[C@H](N)CSSC[C@H](C(=O)NCC(=O)NCC(=O)N[C@@H](CCCNC(=N)N)C(=O)N2CCC[C@H]2C(=O)N[C@@H](C)C(=O)N[C@@H](CCCNC(=N)N)C(=O)N2CCC[C@H]2C(=O)N[C@@H](C)C(=O)N[C@@H](CCCNC(=N)N)C(=O)O)NC(=O)[C@H](C)NC(=O)[C@H](CCC(N)=O)NC(=O)[C@H](CCCCN)NC(=O)[C@H](CCCCN)NC(=O)[C@H](CCC(=O)O)NC(=O)[C@H](CCCNC(=N)N)NC1=O [MN-4] (H-[dC][dW]LQFAVLREKKQA[dC]GGRPARPAR-OH; disulfide 1-15)
[3]
  IC50: 119 ± 6.1 nM
[1]
  Kd: 116 ± 5.5 nM
[2]
  Kd: 15.1 ± 3.3 nM
